Source: patent US8795659B2 (priority 2004, dated 2014)

System: Lewis Lung Carcinoma
Conditions: mouse, in vivo, ip

| SMILES | % ILS (excluding survivors) [%] | Highest non-toxic dosage | T-C (tumor growth delay to 750 mg) [days] | tumor free survivors |
| --- | --- | --- | --- | --- |
| O=P1(N(CCCl)CCCl)NCCCO1 (centres unmarked) [Cyclophosphamide, cyclophosphamide] | 68 | 200 | 27 | 5/10 |
| O=P1(NCCCl)OCCCN1CCCl (centres unmarked) [Ifosfamide] | 55 | 300 | 18 | 7/10 |
